Consider three compounds from US11168083B2, “Inhibitors of Plasma Kallikrein and uses thereof” (Takeda Pharmaceutical Company Limited, priority 2017, dated 2021).

Common to all, as to assay type: biochemical
Assay [1] concerns the target human activated kallikrein enzyme (Homo sapiens (Human), UniProt P03952). As to the kind of experiment: Inhibition of human activated kallikrein enzyme, fluorogenic peptide substrate assay (two formats). As to conditions: read-out: pKal EC50. The method in brief:
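Fluorogenic Pro-Phe-Arg-AMC substrate (300 uM) in 20 mM Tris pH 7.5, 150 mM NaCl, 1 mM EDTA, 0.1% PEG-400, 0.1% Triton X-100; enzyme and inhibitor preincubated 30 min at room temperature. Format one: 500 pM enzyme, 10 min reaction; format two: 5 pM enzyme, 18 hr reaction. Fluorescence read at 380 nm excitation/460 nm emission.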

The target in the next assay is FXa (Homo sapiens (Human), UniProt P00742). As to the kind of experiment: Selectivity screen of serine proteases, anti-target panel: FXa. Here is the method: (§1) Compounds 11, 33, and 53 were evaluated in a selectivity screen of serine proteases.
Another assay has as its target Thrombin (Homo sapiens (Human), UniProt P00734). As to the kind of experiment: Selectivity screen of serine proteases, anti-target panel: Thrombin. The method, then:
as §1

The target of another assay is Elastase. As to the kind of experiment: Selectivity screen of serine proteases, anti-target panel: Elastase. Here is the method: as §1
The next assay deals with Trypsin. As to the kind of experiment: Selectivity screen of serine proteases, anti-target panel: Trypsin. Here is the method: as §1
Assay [2] concerns selected anti-target proteases. As to the kind of experiment: Selectivity screen of serine proteases (overall statement). As to conditions: none showed any inhibitory activity of the anti-target proteases. The method, then: as §1
Setting [3] is: Table 2, column head prints nM, ranges defined in μM.

Molecules are shown by their SMILES. Read-outs that look alike come from different tables or passages of the source.

Sequence of FXa (P00742 235-488): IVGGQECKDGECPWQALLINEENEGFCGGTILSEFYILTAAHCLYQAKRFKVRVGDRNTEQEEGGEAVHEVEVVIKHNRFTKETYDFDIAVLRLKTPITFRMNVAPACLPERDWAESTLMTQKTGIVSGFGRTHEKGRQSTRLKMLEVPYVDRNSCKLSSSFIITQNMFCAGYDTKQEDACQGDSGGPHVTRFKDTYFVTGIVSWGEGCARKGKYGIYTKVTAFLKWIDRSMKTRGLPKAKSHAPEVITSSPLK
Sequence of FXa (P00742 41-179 partner): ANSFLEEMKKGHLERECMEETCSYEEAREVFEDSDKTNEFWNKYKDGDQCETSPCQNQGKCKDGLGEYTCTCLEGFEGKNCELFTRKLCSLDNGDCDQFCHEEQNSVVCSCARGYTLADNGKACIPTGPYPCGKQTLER
Sequence of human activated kallikrein enzyme (P03952 391-638): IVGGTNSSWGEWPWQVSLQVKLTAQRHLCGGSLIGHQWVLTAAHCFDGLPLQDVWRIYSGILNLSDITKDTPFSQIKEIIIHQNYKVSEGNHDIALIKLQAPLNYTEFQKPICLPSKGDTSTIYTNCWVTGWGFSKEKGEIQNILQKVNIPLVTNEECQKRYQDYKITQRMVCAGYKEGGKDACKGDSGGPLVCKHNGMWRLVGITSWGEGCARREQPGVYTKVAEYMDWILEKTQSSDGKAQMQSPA
Sequence of human activated kallikrein enzyme (P03952 20-390 partner): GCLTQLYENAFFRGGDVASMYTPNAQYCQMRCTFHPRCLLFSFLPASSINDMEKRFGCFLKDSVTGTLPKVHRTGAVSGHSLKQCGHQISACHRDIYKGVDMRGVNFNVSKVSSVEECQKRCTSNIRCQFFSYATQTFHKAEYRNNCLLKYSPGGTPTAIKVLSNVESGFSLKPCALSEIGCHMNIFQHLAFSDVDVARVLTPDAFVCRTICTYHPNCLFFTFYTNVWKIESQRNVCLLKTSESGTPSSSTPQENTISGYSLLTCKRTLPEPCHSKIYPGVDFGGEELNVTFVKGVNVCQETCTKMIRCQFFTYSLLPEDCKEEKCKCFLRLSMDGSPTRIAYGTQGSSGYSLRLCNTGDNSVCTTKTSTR

Usually EC50 stands for the concentration that produces a half-maximal response. By IC50 is commonly meant the concentration needed to halve the response being measured. A low value points to inhibition by little substance. `CNC(=O)[C@H](CCCCNC(=N)N)NC(=O)c1csc([C@@H]2CCCN2C(=O)c2cn3cc(Cl)ccc3n2)n1` [Compound 33, 2-((S)-1-(6-Chloroimidazo[1,2-a]pyridine-2-carbonyl)pyrrolidin-2-yl)-N—((S)-6-guanidino-1-(methylamino)-1-oxohexan-2-yl)thiazole-4-carboxamide]: the EC50 is 1000 to 5000 nM in assay [1] (setting [3]) and 3240 nM in assay [1] (Table 3). In addition, the half-inhibitory concentration (IC50) at FXa is above 10 µM; on Thrombin, above 10 µM; against Elastase it was above 10 µM; with Trypsin, above 100 µM. Besides, the “Selectivity for pKal over selected anti-target proteases” value (“Selectivity for pKal” below) in assay [2] was “selective inhibitors of pKal”.
For the compound `CNC(=O)[C@H](CCCCNC(=N)N)NC(=O)c1csc([C@@H]2C[C@@H](N)CN2C(=O)c2cn3cc(Cl)ccc3n2)n1` [Compound 11, 2-((2S,4R)-4-amino-1-(6-chloroimidazo[1,2-a]pyridine-2-carbonyl)pyrrolidin-2-yl)-N—((S)-6-guanidino-1-(methylamino)-1-oxohexan-2-yl)thiazole-4-carboxamide], the EC50 in assay [1] (setting [3]) is at most 100 nM; in assay [1] (Table 3) it was 32 nM. Further, the IC50 at FXa was above 10 µM; on Thrombin it was above 10 µM; on Elastase it was above 10 µM; with Trypsin it was above 100 µM. Further, the “Selectivity for pKal” value in assay [2] is “selective inhibitors of pKal”.
For the compound `Nc1nccc2cc(CCNC(=O)c3csc([C@@H]4C[C@@H](N)CN4C(=O)c4cn5cc(Cl)ccc5n4)n3)ccc12` [Compound 53, 2-((2S,4R)-4-amino-1-(6-chloroimidazo[1,2-a]pyridine-2-carbonyl)pyrrolidin-2-yl)-N-(2-(1-aminoisoquinolin-6-yl)ethyl)thiazole-4-carboxamide], the figures for the half-maximal effective concentration (EC50) in assay [1] (setting [3]) and in assay [1] (Table 3) were at most 100 nM and 15 nM, respectively. The half-maximal inhibitory concentration (IC50) at FXa is above 10 µM; at Thrombin it was above 10 µM; on Elastase it was above 10 µM; in the assay on Trypsin it was above 100 µM. In addition, the “Selectivity for pKal” value in assay [2] is recorded as “selective inhibitors of pKal”.
